A short description of the data set: RP, Thermo Scientific Acclaim RSLC 120 C18, 100 × 2.1 mm, 2.2 µm, 30 °C, 0.2 mL/min, estimated dead time 1.1 min; A: 90% water + 10% methanol + 0.01% formic acid + 5 mM ammonium formate, pH 3.61; B: methanol + 0.01% formic acid + 5 mM ammonium formate, pH 3.61; gradient (min/%B) 0/1 1/1 2/39 13/99.9 15/99.9 15.1/1 20.1/1. As to conditions: stereoisomer not certain.
Turning to `O=C1Nc2ccc(Cl)cc2C(c2ccccc2)=NC1O` (stereo not given) [Oxazepam], the LC retention time is 8.43 min.

In the case of `NC(=O)N1c2ccccc2CC(=O)c2ccccc21` [Oxcarbazepine], the LC retention time was 6.46 min.

Regarding `CCN(CC)CCOCCOC(=O)C(CC)(CC)c1ccccc1` [Oxeladin], the LC retention time was 8.04 min.

For `CN(C(=O)CN(CCO)CC(=O)N(C)C(C)(C)Cc1ccccc1)C(C)(C)Cc1ccccc1` [Oxetacaine], the LC retention time was 10.9 min. With `CC[N+]1(C)C2CC(OC(=O)C(CO)c3ccccc3)CC1C1OC12` (stereo not given) [Oxitropium], the LC retention time is 3.87 min.

In the case of `CCCc1nn(C)c2c(=O)[nH]c(-c3cc(C(=O)CN4CCN(CC)C(=O)C4)ccc3OCC)nc12` [Oxohongdenafil], the LC retention time was 9.09 min. With `CCn1cc(C(=O)O)c(=O)c2cc3c(cc21)OCO3` [Oxolinic acid], the LC retention time is 6.03 min. The value for `CC(CN(C)C)CN1c2ccccc2S(=O)(=O)c2ccccc21` (stereo not given) [Oxomemazine] was 5.34 min. Take `C=CCOc1ccccc1OCC(O)CNC(C)C` (stereo not given) [Oxprenolol]: the LC retention time was 5.66 min. In the case of `CCCCOc1cc(C(=O)OCCN(CC)CC)ccc1N` [Oxybuprocaine], the LC retention time is 5.94 min.

On to `CCN(CC)CC#CCOC(=O)C(O)(c1ccccc1)C1CCCCC1` (stereo not given) [Oxybutynin], for which the LC retention time was 8.92 min.

As to `COc1ccc2c3c1OC1C(=O)CCC4(O)C(C2)NCCC314` (stereo not given) [Oxycodone-Nor], the LC retention time was 3.71 min.

Take `COc1ccc2c3c1OC1C(=O)CCC4(O)C(C2)N(C)CCC314` (stereo not given) [Oxycodone]: the LC retention time is 3.61 min. As for `COc1cccc(C(=O)CCNC(C)C(O)c2ccccc2)c1` (stereo not given) [Oxyfedrine], the LC retention time was 6.14 min. Turning to `CCOc1cc(Oc2ccc(C(F)(F)F)cc2Cl)ccc1[N+](=O)[O-]` [Oxyfluorfen], the LC retention time is 12.1 min.

On to `Cc1cc(C(C)(C)C)c(O)c(C)c1CC1=NCCN1` [Oxymetazoline], for which the LC retention time is 6.99 min.

In the case of `CN1CCC23c4c5ccc(O)c4OC2C(=O)CCC3(O)C1C5` (stereo not given) [Oxymorphone], the LC retention time is 2.75 min. With `OCCN1CCN(CCCN2c3ccccc3Sc3cccnc32)CC1` [Oxypendyl], the LC retention time is 7.57 min. Next, `COc1cc2[nH]c(C)c(CCN3CCN(c4ccccc4)CC3)c2cc1OC` [Oxypertine]: 5.76 min. The value for `CN1CCCN=C1COC(=O)C(O)(c1ccccc1)C1CCCCC1` (stereo not given) [Oxyphencyclimine] was 7.98 min; that for `CN(C)C1C(=O)C(C(N)=O)=C(O)C2(O)C(=O)C3=C(O)c4c(O)cccc4C(C)(O)C3C(O)C12` (stereo not given) [Oxytetracycline] was 4.6 min. Consider `O=C(Oc1cccc2cccnc12)c1cn(CCCCCF)c2ccccc12` [PB-22-5F], for which the LC retention time is 10.7 min. For `CCCCCn1cc(C(=O)Oc2cccc3cccnc23)c2ccccc21` [PB-22], the LC retention time is 11.9 min. Next, `O=C(Nc1cccc2ccccc12)c1cn(CCCCCF)c2ccncc12` [PCN-5F]: 11.8 min. The value for `COc1ccc(CC(C)N)cc1` (stereo not given) [PMA] was 4.34 min. `CC(C(=O)c1ccccc1)N1CCCC1` (stereo not drawn) [PPP- alpha]: the LC retention time was 4.01 min. The value for `CCCC(C(=O)c1ccccc1)N1CCCC1` (stereo not drawn) [PVP- Alpha] was 5.08 min; that for `O=C1OC(=O)c2ccccc21` [PX-1] was 9.58 min; that for `CC(C)(C)C(O)C(Cc1ccc(Cl)cc1)n1cncn1` (stereo not given) [Paclobutrazole] was 9.49 min.

Regarding `COc1ccnc(CS(=O)c2nc3ccc(OC(F)F)cc3[nH]2)c1OC` (stereo not given) [Pantoprazole], the LC retention time was 7.46 min. The value for `CC1CC2C3CC(F)C4=CC(=O)C=CC4(C)C3C(O)CC2(C)C1(O)C(=O)CO` (stereo not given) [Paramethasone] was 8.69 min; that for `COP(=O)(OC)Oc1ccc([N+](=O)[O-])cc1` [Paraoxon-methyl] was 6.36 min. Take `CCOP(=O)(OCC)Oc1ccc([N+](=O)[O-])cc1` [Paraoxon]: the LC retention time is 8.01 min. The value for `COP(=S)(OC)Oc1ccc([N+](=O)[O-])cc1` [Parathion-methyl] was 9.24 min; that for `CCOP(=S)(OCC)Oc1ccc([N+](=O)[O-])cc1` [Parathion] was 10.7 min; that for `Fc1ccc(C2CCNCC2COc2ccc3c(c2)OCO3)cc1` (stereo not given) [Paroxetine] was 7.87 min. With `CCCCN(CC)C(=O)SCCC` [Pebulate], the LC retention time is 11.5 min.

Take `N=C1NC(=O)C(c2ccccc2)O1` (stereo not given) [Pemoline]: the LC retention time is 4.34 min. The value for `CC(C)(C)NCC(O)COc1ccccc1C1CCCC1` (stereo not given) [Penbutolol] was 9.01 min.

Consider `Nc1nc2c(ncn2CCC(CO)CO)c(=O)[nH]1` [Penciclovir], for which the LC retention time was 2.98 min. Next, `CCCC(Cn1cncn1)c1ccc(Cl)cc1Cl` (stereo not given) [Penconazole]: 10.8 min. For the molecule `O=C(Nc1ccccc1)N(Cc1ccc(Cl)cc1)C1CCCC1` [Pencycuron], the LC retention time was 11.4 min.

Consider `CCC(CC)Nc1c([N+](=O)[O-])cc(C)c(C)c1[N+](=O)[O-]` [Pendimethalin], for which the LC retention time was 12.8 min. Next, `OC1(c2ccc(Cl)c(C(F)(F)F)c2)CCN(CCCC(c2ccc(F)cc2)c2ccc(F)cc2)CC1` [Penfluridol]: 10.1 min; `O=C(NC(=O)c1c(F)cccc1F)Nc1ccc(C(F)(F)F)cc1` [Penfluron]: 10.9 min; `CC1(C)SC2C(NC(=O)COc3ccccc3)C(=O)N2C1C(=O)O` (stereo not given) [Penicillin V]: 6.8 min.

Regarding `CCCC(C)C(=O)Nc1ccc(C)c(Cl)c1` (stereo not given) [Pentanochlor], the LC retention time was 10.6 min.

Take `CC(C)=CCN1CCC2(C)c3cc(O)ccc3CC1C2C` (stereo not given) [Pentazocine]: the LC retention time is 5.46 min. The value for `CCCC(NC)C(=O)c1ccccc1` (stereo not given) [Pentedrone] was 4.89 min; that for `CCCCCCn1c(=O)c2c(ncn2C)n(C)c1=O` [Pentifylline] was 9.44 min; that for `CC(=O)CCCCn1c(=O)c2c(ncn2C)n(C)c1=O` [Pentoxifylline] was 5.23 min. In the case of `CCN(CC)CCOCCOC(=O)C1(c2ccccc2)CCCC1` [Pentoxyverine], the LC retention time was 7.87 min.

Take `CCCC(NC)C(=O)c1ccc2c(c1)OCO2` (stereo not given) [Pentylone]: the LC retention time was 4.99 min. The value for `CN1CCN(CCCN2c3ccccc3Sc3ccccc32)CC1` [Perazine] was 8.8 min; that for `CCCN1CC(CSC)CC2c3cccc4[nH]cc(c34)CC21` (stereo not given) [Pergolide] was 6.19 min; that for `N#Cc1ccc2c(c1)N(CCCN1CCC(O)CC1)c1ccccc1S2` [Periciazine] was 7.45 min.

As for `CCCC(NC(C)C(=O)N1C(C(=O)O)CC2CCCCC21)C(=O)OCC` (stereo not given) [Perindopril], the LC retention time is 13.2 min.

As for `CC1(C)C(C=C(Cl)Cl)C1C(=O)OCc1cccc(Oc2ccccc2)c1` (stereo not given) [Permethrin], the LC retention time is 13.9 min.

For `OCCN1CCN(CCCN2c3ccccc3Sc3ccc(Cl)cc32)CC1` [Perphenazine], the LC retention time is 9.55 min. With `CCOCCN(C(=O)CCl)C(=C(C)C)c1ccccc1` [Pethoxamide], the LC retention time is 10.1 min. Next, `O=C1Nc2ccc(Br)cc2C(c2ccccc2Cl)=NC1O` (stereo not given) [Phenazepam- 3-Hydroxy]: 8.34 min; `O=C1CN=C(c2ccccc2Cl)c2cc(Br)ccc2N1` [Phenazepam]: 8.93 min. The value for `CC1C2Cc3ccc(O)cc3C1(C)CCN2CCc1ccccc1` (stereo not given) [Phenazocine] was 6.08 min. As to `Cc1cc(=O)n(-c2ccccc2)n1C` [Phenazone], the LC retention time is 4.63 min. Next, `Nc1ccc(N=Nc2ccccc2)c(N)n1` [Phenazopyridine]: 8.49 min; `c1ccc(C2(N3CCCCC3)CCCCC2)cc1` [Phencyclidine]: 5.74 min. Next, `CC1C(c2ccccc2)OCCN1C` (stereo not given) [Phendimetrazine]: 4.06 min; `NNCCc1ccccc1` [Phenelzine]: 3.71 min. Turning to `NCCc1ccccc1` [Phenethylamine (2-)], the LC retention time was 3.57 min. Next, `NC(N)=NC(N)=NCCc1ccccc1` [Phenformin]: 4.38 min; `C[N+](C)([O-])CCC(c1ccccc1)c1ccccn1` (stereo not given) [Pheniramine N-Oxide]: 5.39 min; `CN(C)CCC(c1ccccc1)c1ccccn1` (stereo not given) [Pheniramine]: 4.98 min. As for `COC(=O)Nc1cccc(OC(=O)Nc2cccc(C)c2)c1` [Phenmedipham], the LC retention time is 8.75 min. Next, `CC1NCCOC1c1ccccc1` (stereo not given) [Phenmetrazine]: 4.14 min; `O=C1OC(c2ccc(O)cc2)(c2ccc(O)cc2)c2ccccc21` [Phenolphthalein]: 7.06 min; `CCC(c1ccccc1)c1c(O)c2ccccc2oc1=O` (stereo not given) [Phenprocoumon]: 9.05 min. In the case of `CC(C)(N)Cc1ccccc1` [Phentermine], the LC retention time was 4.64 min. The value for `CCOC(=O)C(SP(=S)(OC)OC)c1ccccc1` (stereo not given) [Phenthoate] was 10.7 min; that for `Cc1ccc(N(CC2=NCCN2)c2cccc(O)c2)cc1` [Phentolamine] was 5.86 min; that for `O=S(=O)(O)c1ccc2nc(-c3ccccc3)[nH]c2c1` [Phenylbenzimidazole sulfonic acid] was 4.63 min.

(Values after the RepoRT retention time repository (doi:10.1021/acs.analchem.2c02893).)
